Measurements: paper PMC11396368, “Free Radical Production Induced by Nitroimidazole Compounds Lead to Cell Death in Leishmania infantum Amastigotes” (Molecules, 2024)
Values joined by “and” are separate entries in the source; they are usually repeats but may differ in a detail not shown here. Equal values may be shown once. Read-outs that look alike come from different tables or passages of the source.

Tests used:
[1] = tested on: L. infantum-iRFP axenic amastigotes; assay: Viability of L. infantum-iRFP axenic amastigotes (infrared fluorescence, 384-well); assay type: cell-based, Leishmania infantum; settings: for EC50: Leishmania infantum, 72 h incubation, mean ± SD; for concentrations producing a decrease in fluorescence emission: axenic amastigotes, from 24 h until 72 h
[2] = Cytotoxicity in RAW 264.7 cells (alamarBlue); settings: mouse
[3] = Cytotoxicity in HepG2 cells (alamarBlue); settings: human
[4] = tested on: intramacrophage L. infantum-iRFP amastigotes; assay: Viability of L. infantum-iRFP intramacrophage amastigotes in infected murine splenocytes (infrared fluorescence, 384-well); assay type: cell-based, Leishmania infantum; settings: for EC50: Leishmania infantum, Splenocyte, 72 h incubation, mean ± SD
L. infantum TryR = L. infantum TryR (Leishmania infantum, UniProt A4HSF7); assay: Trypanothione reductase enzymatic assay in parasite protein extracts; assay type: biochemical; settings: up to 100 μM (thioridazine at 100 μM); T[S]2 0.075 mM, NADPH 0.20 mM
Chain of L. infantum TryR (A4HSF7 entry or part of it): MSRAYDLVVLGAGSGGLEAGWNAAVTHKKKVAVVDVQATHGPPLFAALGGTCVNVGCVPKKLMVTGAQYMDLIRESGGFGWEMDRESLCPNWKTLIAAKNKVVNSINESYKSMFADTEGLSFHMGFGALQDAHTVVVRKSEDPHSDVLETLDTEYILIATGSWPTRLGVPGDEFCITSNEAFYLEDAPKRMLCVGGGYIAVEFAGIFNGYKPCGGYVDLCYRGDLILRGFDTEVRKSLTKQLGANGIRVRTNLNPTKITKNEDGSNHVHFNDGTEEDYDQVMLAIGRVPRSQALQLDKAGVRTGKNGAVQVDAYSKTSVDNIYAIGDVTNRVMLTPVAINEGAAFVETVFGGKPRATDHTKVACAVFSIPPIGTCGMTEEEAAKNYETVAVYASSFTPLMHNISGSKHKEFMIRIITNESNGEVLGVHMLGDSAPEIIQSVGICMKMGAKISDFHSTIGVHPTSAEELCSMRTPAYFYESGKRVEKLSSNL

[5] = tested on: intracellular amastigotes of L donovani; settings: cited from earlier work
[6] = tested on: L. infantum-iRFP axenic amastigotes; assay: ROS production by axenic amastigotes (DCFH-DA, flow cytometry); assay type: cell-based, Leishmania infantum; settings: 3 h treatment, 0.04 μM fexinidazole, 0.28 μM pretomanid (EC50)
[7] = CC50 HepG2 cells / EC50 axenic amastigotes
[8] = CC50 RAW 264.7 cells / EC50 axenic amastigotes
[9] = CC50 HepG2 cells / EC50 intramacrophage amastigotes
[10] = CC50 RAW 264.7 cells / EC50 intramacrophage amastigotes

For `C[C@@H]1[C@H](O)[C@@H](C)/C=C/C=C/C=C/C=C/C=C/C=C/C=C/[C@H](O[C@@H]2O[C@H](C)[C@@H](O)[C@H](N)[C@@H]2O)C[C@@H]2O[C@](O)(C[C@@H](O)C[C@@H](O)[C@H](O)CC[C@@H](O)C[C@@H](O)CC(=O)O[C@H]1C)C[C@H](O)[C@H]2C(=O)O` [Amp B], the “SI1 (Selectivity Index)” value [1] was 258.33, the “SI2 (Selectivity Index)” value [1] was 24.82 and the EC50 [1] was 270 ± 20 nM. The CC50 at 72 h ([2]; RAW 264.7 macrophage cells) was 6700 ± 670 nM, the CC50 at 72 h ([3]; HepG2 cells) was 69800 ± 13700 nM and the “SI1 (Selectivity Index)” value [4] was 217.97. The “SI2 (Selectivity Index)” value [4] was 20.94 and the EC50 [4] was 320 ± 20 nM.
For `CSc1ccc(OCc2ncc([N+](=O)[O-])n2C)cc1` [Fexinidazole, 1-methyl-2-((p-(methylthio)-phenoxy)methyl)-5-nitroimidazole], the “SI1 (Selectivity Index)” value [1, 7] was greater than 5000.00, the “SI2 (Selectivity Index)” value [1, 8] was greater than 5000.00 and the EC50 [1] was 40 nM. For the same molecule, the “concentrations producing a decrease in fluorescence emission” value [1] was “above 0.125 μM”, the CC50 at 72 h ([2]; RAW 264.7 macrophage cells) was greater than 200000 nM and the CC50 at 72 h ([3]; HepG2 cells) was greater than 200000 nM. The “SI1 (Selectivity Index)” value [4, 9] was greater than 151.52, the “SI2 (Selectivity Index)” value [4, 10] was greater than 151.52 and the EC50 [4] was 1320 ± 60 nM. The “inhibitory effect on L. infantum TryR” value (L. infantum TryR) was “neither fexinidazole nor pretomanid had any inhibitory effect”, the “potency against intracellular amastigotes” value (shortened to “potency”) [5] was “little activity” and the “percentage of the stressed population (+ROS)” value (“percentage” for short) ([6]; 0.01% (v/v) H2O2) was 58.4 ± 1.5% and 58.4%. For the same molecule, the “unstressed population (−ROS)” value ([6]; 0.01% (v/v) H2O2) was 41.6%.
In the case of `OO` [H2O2], the “percentage” value ([6]; 0.01% (v/v) H2O2) is reported as 72.2% and the “unstressed population (−ROS)” value ([6]; 0.01% (v/v) H2O2) is reported as 27.7%.
For `O=[N+]([O-])c1cn2c(n1)OC[C@@H](OCc1ccc(OC(F)(F)F)cc1)C2` [Pretomanid], the “SI1 (Selectivity Index)” value [1, 7] was greater than 714.29, the “SI2 (Selectivity Index)” value [1, 8] was greater than 714.29 and the EC50 [1] was 280 ± 20 nM. The “concentrations producing a decrease in fluorescence emission” value [1] was greater than 0.5 µM, the CC50 at 72 h [2] was greater than 200000 nM and the CC50 at 72 h [3] was greater than 200000 nM. The “SI1 (Selectivity Index)” value [4, 9] was greater than 303.03, the “SI2 (Selectivity Index)” value [4, 10] was greater than 303.03 and the EC50 [4] was 660 ± 80 nM. The “inhibitory effect on L. infantum TryR” value (L. infantum TryR) was “neither fexinidazole nor pretomanid had any inhibitory effect”, the “percentage” value ([6]; 0.01% (v/v) H2O2) was 39.8% and the “unstressed population (−ROS)” value ([6]; 0.01% (v/v) H2O2) was 59.9%. The “percentage” value ([6]; 0.01% (v/v) H2O2, listed as pretomanid) was 39.8 ± 1.2%.
For `Cn1c([N+](=O)[O-])cnc1COc1ccc(S(C)(=O)=O)cc1` [sulfone], the “potency” value [5] is listed as “potency similar to miltefosine”.
In the case of `Cn1c([N+](=O)[O-])cnc1COc1ccc([S+](C)[O-])cc1` (stereo not drawn) [sulfoxide], the “potency” value [5] is given as “potency similar to miltefosine”.
In the case of `CSc1ccc2c(c1)N(CCC1CCCCN1C)c1ccccc1S2` (stereo not drawn) [thioridazine], the “inhibitory effect on L. infantum TryR” value (L. infantum TryR) is reported as “completely inhibited the enzyme”.
